# Laboratory results published in ChEMBL document CHEMBL1201862, “PubChem BioAssay data set” (2004).
# “And” between values parts separate entries of the source, which are not always exact repeats. Equal entries are not always repeated. The source made the active and inactive calls.
# Assays:
# [1] = target: Acylamino-acid-releasing enzyme (Homo sapiens, UniProt P13798); assay: endogenous PME-1 and serine hydrolase inhibition – cell lysate, mouse brain cytosol, FP-rhodamine, gel ABPP, selectivity assay for PME-1 inhibitor project, dose response, panel member APEH Assay Panel member description: Inhibition of N-acylaminoacyl-peptide hydrolase (APEH) (anti-target) (AID 2366)
# [2] = Late stage results from the probe development effort to identify inhibitors of the protein methylesterase PME-1: Luminescence-based counterscreen assay to identify cytotoxic compounds.; type: functional
# [3] = target: Melanin-concentrating hormone receptor 1 (Homo sapiens, UniProt Q99705); assay: Fluorescence-based counterscreen for antagonists of the G-protein coupled receptor 7 (GPR7): cell-based high throughput dose response assay to identify antagonists of the melanin-concentrating hormone receptor 1 (MCHR1).; type: functional
# [4] = target: RNA-editing ligase 1, mitochondrial (Trypanosoma brucei brucei, UniProt P86926); assay: inhibition of trypanosome RNA editing ligase – biochemical, fluorescence, Trypanosoma brucei, dose response (AID 1117295); type: functional
# [5] = target: Neurotensin receptor type 1 (Homo sapiens, UniProt P30989); type: functional;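 also: Image-based confirmatory dose-response assay measuring agonist activity at NTR1; NTR1-expressing U2OS osteosarcoma cells imaged for beta-arrestin GFP spot formation; agonist potency where compounds increase beta-arrestin recruitment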
# [6] = test system: Streptococcus sp. 'group A'; assay: Streptococcus pyogenes SK(-)GAS viability under kanamycin – luminescence, BacTiterGlo, confirmation, counter-screen for streptokinase expression inhibitor project, dose response (AID 1900); type: functional, organism-based
# Streptococcus = assay: GAS UMAA2166 growth inhibition – luminescence, BacTiterGlo, counter-screen for streptokinase expression inhibitor project, dose response (AID 1915); type: functional, organism-based;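 also: potency for reduction of bacterial viability or growth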
# [7] = microbe, parasite or virus in culture; type: functional; conditions: Mycobacterium tuberculosis
# [8] = Vero E6 cell cytotoxicity, dose response, cytotoxicity control for non-replicating M. tuberculosis project, secondary assay (AID 492998); type: functional, VeroE6; conditions: Vero C1008
# cells [9] = type: functional
# [10] = target: NACHT, LRR and PYD domains-containing protein 3 (Homo sapiens, UniProt Q96P20); assay: NALP3 inhibitors in yeast, dose response, luminescent (AID 488799); type: functional
# [11] = target: T1, Alkaline phosphatase, tissue-nonspecific isozyme (Homo sapiens, UniProt P05186)
# T1 sequence (P05186 whole entry): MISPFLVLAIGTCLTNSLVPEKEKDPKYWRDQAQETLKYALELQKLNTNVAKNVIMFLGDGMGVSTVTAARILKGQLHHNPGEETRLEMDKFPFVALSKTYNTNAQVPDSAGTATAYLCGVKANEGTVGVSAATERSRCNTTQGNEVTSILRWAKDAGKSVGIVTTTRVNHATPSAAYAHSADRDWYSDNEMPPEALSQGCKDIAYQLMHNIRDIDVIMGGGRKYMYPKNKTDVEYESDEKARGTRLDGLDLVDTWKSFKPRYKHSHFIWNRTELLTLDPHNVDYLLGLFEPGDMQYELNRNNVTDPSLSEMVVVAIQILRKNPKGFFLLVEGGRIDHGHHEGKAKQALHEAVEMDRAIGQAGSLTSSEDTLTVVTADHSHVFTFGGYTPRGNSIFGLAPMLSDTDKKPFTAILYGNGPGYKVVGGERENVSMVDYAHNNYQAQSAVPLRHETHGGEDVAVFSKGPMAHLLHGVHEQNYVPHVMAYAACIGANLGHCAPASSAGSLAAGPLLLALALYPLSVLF
# Cytochrome P450 2C9 = Cytochrome P450 2C9 (Homo sapiens, UniProt P11712); conditions: Potency
# Cytochrome P450 3A4 = Cytochrome P450 3A4 (Homo sapiens, UniProt P08684); conditions: Potency;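 also: confirmatory qHTS run detecting inhibitors and substrates of CYP3A4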
# [12] = target: Mothers against decapentaplegic homolog 3 (Homo sapiens, UniProt P84022); assay: inhibitors of SMAD-driven TGF-beta signaling – dose response (AID 715); type: functional
# [13] = target: T2, Heat shock 70 kDa protein 1A (Homo sapiens, UniProt P0DMV8); assay: small-molecule inhibition of Hsp70 – biochemical, TR-FRET (AID 786)
# Bcl-2-related protein A1 [14] = target: T3, Bcl-2-related protein A1 (Mus musculus, UniProt Q07440); assay: displacement of Bid BH3 peptide from Bfl-1 – biochemical, fluorescence polarization, FITC-Bid, mouse, primary screen (AID 432)
# T3 sequence (Q07440 whole entry): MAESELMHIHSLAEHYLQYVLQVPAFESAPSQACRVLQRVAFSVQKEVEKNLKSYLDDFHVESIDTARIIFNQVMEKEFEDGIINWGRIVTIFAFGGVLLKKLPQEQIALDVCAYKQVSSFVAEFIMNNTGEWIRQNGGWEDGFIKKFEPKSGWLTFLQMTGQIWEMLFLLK
# Bcl-2-like protein 10 = target: T4, Bcl-2-like protein 10 (Homo sapiens, UniProt Q9HD36); assay: Bcl-B/TR3 peptide binding disruption – biochemical, fluorescence polarization, FITC-TR3 peptide, selectivity assay for Bfl-1 inhibitor project, primary screen (AID 748);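 also: fluorescence polarization from a fluorescein-labelled TR3 peptide binding purified Bcl-B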
# T4 sequence (Q9HD36 whole entry): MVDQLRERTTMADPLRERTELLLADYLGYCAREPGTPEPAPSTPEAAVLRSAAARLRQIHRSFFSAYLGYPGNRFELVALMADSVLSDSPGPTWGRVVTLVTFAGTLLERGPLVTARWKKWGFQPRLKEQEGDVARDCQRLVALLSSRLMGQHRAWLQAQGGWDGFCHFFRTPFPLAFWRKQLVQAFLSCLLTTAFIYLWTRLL
# Bcl-2-related protein A1 [15] = target: T3, Bcl-2-related protein A1; assay: small-molecule antagonists of Bfl-1/BH3 interaction – biochemical, TR-FRET, mouse Bfl-1, confirmation (AID 621);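 also: TR-FRET binding of GST-Bfl-1 to FITC-labelled Bid peptide via terbium antibody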
# Estrogen receptor beta = Estrogen receptor beta (Homo sapiens, UniProt Q92731); assay: blockers of SRC-3 recruitment to ERβ – biochemical, ELISA, streptavidin-HRP readout, orthogonal assay, confirmation (AID 1060)
# [16] = target: T2, Heat shock 70 kDa protein 1A; assay: small molecules displacing fluorescent ligand from Hsp70 – biochemical, fluorescence polarization, primary screen (AID 583)
# Ion channel NompC [17] = target: T5, Ion channel NompC (Danio rerio, UniProt Q7T1G6); assay: activators of mucolipin-3 and mucolipin-2 – cell-based, […], Fura-2 profiling panel, panel member TRPN1 Dose Response (AID 2116)
# Ion channel NompC [18] = target: T5, Ion channel NompC; assay: Fluorescence counterscreen assay for TRPML3 agonists: dose response cell-based high-throughput screening assay to identify agonists of the transient receptor potential channel N1 (TRPN1). [Related pubchem assays: 1526, 1424, 1448 ]; type: functional
# Mucolipin-3 [19] = target: T6, Mucolipin-3 (Homo sapiens, UniProt Q8TDD5); assay: Dose response cell-based high-throughput screening assay for agonists of the transient receptor potential channel ML3 (TRPML3). [Related pubchem assays: 1526, 1424, 1448 ]; type: functional
# T6 sequence (Q8TDD5 whole entry): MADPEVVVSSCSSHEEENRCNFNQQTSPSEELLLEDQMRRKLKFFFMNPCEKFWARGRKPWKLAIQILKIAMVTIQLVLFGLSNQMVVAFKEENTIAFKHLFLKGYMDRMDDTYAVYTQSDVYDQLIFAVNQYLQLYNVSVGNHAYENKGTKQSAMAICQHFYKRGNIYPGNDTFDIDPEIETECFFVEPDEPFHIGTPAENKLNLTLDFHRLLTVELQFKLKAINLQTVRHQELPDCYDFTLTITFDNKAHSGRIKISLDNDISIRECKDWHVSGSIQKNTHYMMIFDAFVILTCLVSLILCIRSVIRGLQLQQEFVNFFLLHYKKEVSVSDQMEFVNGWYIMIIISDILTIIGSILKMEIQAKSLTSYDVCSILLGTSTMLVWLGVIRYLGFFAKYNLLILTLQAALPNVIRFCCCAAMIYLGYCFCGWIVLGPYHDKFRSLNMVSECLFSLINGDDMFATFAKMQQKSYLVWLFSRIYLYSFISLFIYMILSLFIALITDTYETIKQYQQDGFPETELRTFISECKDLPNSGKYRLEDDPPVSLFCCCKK
# Mucolipin-3 [20] = target: T6, Mucolipin-3; assay: activators of mucolipin-3 and mucolipin-2 – cell-based, patch clamp, Fura-2 profiling panel, panel member TRPML3 Dose Response (AID 2116)
# [21] = target: Voltage-dependent T-type calcium channel subunit alpha-1H (Homo sapiens, UniProt O95180); type: functional;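 also: channel activity triggered by adding a high calcium stimulation buffer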
# [22] = target: T7, Eukaryotic translation initiation factor 2-alpha kinase 3 (Homo sapiens, UniProt Q9NZJ5); assay: Counterscreen assay for PERK inhibitors: Dose response cell-based high throughput screening assay to measure inhibition of PERK at 6 hours. [Related pubchem assays: 1522, 1416 ]; type: functional
# [23] = target: T7, Eukaryotic translation initiation factor 2-alpha kinase 3; assay: Dose response cell-based high-throughput screening assay to measure PERK inhibition. [Related pubchem assays: 1416 ]; type: functional
# [24] = target: Acyl-homoserine lactone acylase PvdQ (Pseudomonas aeruginosa (strain LESB58), UniProt Q9I194); assay: PvdQ acylase enzyme activity blockers – biochemical, fluorescence, plate reader and imaging, cherry-picks, dose response (AID 493231)
# [25] = blockers of HIV-1 ZM109 envelope-driven cell-cell fusion – HeLa effector, CEM target cells, luciferase, cherry-pick, dose response (AID 652058); type: functional, cell-based;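 also: luciferase signal from HIV-1 Env mediated cell-cell fusion of effector and target cells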
# cells [26] = type: functional, cell-based; conditions: HEK-CNG
# Galanin receptor type 3 = target: T8, Galanin receptor type 3 (Homo sapiens, UniProt O60755); assay: Fluorescence-based cell-based primary high throughput dose response assay to identify antagonists of the Galanin Receptor 3 (GalR3).; type: functional
# T8 sequence (O60755 whole entry): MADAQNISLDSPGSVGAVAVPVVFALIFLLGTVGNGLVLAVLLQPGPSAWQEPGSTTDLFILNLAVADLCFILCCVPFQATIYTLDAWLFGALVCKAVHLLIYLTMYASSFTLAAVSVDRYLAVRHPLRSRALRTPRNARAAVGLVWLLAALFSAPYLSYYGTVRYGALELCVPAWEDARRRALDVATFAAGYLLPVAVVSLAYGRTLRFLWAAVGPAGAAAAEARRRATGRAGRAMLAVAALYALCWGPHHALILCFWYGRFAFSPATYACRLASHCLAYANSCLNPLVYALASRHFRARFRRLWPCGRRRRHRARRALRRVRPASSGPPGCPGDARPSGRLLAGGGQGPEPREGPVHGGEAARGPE
# [27] = target: C-C chemokine receptor type 6 (Homo sapiens, UniProt P51684); assay: antagonism of CCR6 beta-arrestin recruitment – cell-based, luminescent beta-arrestin readout, dose response (AID 504728); type: functional
# [28] = HIV-1 AD8 envelope cell-cell fusion blockers – cherry-pick, dose response (AID 652062); type: functional, cell-based;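 also: luciferase signal from cell-cell fusion driven by HIV-1 clade B AD8 Env; potency is for inhibitors of fusion seen as a drop in luminescence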
# Beta-galactosidase = Beta-galactosidase (Escherichia coli, UniProt Q8VNN2); assay: detection-enzyme interference by beta-gal modulators – biochemical, E. coli enzyme, set 3, artefact control for CCR6 antagonist project, dose response (AID 504712); type: functional
# [29] = viability loss in CEM21 cells – cell-based, CellTiter-Glo luminescence, cherry-picked, cytotoxicity control for viral fusion inhibitor project, dose response (AID 652042); type: functional;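 also: potency for signal decrease meaning cytotoxicity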
# T2 sequence (P0DMV8 whole entry): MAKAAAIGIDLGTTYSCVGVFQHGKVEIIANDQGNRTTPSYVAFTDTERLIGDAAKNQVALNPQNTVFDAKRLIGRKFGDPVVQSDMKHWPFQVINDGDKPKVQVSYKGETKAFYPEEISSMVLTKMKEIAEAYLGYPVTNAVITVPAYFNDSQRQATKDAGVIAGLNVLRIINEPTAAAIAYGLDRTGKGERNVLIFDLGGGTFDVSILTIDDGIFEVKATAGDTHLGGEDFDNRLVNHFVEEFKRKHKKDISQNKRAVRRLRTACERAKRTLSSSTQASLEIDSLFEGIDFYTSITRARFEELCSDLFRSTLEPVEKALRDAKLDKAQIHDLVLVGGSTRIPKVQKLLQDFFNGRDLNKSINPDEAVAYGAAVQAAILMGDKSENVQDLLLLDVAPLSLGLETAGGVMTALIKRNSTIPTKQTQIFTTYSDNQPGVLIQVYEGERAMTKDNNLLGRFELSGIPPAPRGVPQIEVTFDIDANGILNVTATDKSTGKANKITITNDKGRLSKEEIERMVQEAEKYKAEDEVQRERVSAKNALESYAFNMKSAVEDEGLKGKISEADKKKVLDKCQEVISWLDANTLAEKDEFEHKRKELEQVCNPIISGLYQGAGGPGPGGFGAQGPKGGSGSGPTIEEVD
# T5 sequence (Q7T1G6 whole entry): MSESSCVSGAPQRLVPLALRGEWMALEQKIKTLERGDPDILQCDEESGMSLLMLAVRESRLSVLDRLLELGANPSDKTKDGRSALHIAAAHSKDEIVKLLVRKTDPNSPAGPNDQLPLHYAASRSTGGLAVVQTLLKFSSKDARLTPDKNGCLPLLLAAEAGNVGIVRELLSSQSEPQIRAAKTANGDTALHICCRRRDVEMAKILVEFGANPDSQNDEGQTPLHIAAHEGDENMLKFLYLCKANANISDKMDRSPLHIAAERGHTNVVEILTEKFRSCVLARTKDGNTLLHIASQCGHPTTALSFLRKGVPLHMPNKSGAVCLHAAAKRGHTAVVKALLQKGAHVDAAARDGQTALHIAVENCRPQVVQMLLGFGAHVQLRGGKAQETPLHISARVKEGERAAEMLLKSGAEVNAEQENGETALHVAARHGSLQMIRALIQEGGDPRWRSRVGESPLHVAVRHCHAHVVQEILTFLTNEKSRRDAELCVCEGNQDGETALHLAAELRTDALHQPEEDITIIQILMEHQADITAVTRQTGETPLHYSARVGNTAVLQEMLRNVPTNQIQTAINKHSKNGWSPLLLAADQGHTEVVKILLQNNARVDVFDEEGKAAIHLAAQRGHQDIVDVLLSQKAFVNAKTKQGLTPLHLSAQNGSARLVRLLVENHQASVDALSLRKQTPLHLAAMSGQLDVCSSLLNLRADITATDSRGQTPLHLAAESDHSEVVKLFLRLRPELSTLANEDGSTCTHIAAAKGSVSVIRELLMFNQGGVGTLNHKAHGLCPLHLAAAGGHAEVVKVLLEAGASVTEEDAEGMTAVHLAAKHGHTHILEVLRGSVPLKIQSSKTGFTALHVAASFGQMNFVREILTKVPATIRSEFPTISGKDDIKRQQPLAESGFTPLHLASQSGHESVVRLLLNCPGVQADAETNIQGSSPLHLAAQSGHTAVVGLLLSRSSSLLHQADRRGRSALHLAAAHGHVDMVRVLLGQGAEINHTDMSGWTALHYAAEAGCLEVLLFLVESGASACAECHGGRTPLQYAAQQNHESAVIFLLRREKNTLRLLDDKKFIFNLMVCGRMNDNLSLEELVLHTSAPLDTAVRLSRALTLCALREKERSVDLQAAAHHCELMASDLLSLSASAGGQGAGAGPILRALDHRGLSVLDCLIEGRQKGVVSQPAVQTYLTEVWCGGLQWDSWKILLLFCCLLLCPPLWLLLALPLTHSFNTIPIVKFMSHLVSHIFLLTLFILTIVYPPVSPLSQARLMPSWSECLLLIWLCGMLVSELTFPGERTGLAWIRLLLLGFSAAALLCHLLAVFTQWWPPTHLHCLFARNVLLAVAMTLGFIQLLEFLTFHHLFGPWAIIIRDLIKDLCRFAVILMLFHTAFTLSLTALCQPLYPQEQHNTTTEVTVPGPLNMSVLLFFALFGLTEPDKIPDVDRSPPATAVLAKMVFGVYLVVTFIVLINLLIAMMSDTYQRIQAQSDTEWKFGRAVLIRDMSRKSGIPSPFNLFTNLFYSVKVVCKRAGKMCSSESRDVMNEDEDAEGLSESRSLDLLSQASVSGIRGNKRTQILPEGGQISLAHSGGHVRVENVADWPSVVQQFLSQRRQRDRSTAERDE
# T7 sequence (Q9NZJ5 whole entry): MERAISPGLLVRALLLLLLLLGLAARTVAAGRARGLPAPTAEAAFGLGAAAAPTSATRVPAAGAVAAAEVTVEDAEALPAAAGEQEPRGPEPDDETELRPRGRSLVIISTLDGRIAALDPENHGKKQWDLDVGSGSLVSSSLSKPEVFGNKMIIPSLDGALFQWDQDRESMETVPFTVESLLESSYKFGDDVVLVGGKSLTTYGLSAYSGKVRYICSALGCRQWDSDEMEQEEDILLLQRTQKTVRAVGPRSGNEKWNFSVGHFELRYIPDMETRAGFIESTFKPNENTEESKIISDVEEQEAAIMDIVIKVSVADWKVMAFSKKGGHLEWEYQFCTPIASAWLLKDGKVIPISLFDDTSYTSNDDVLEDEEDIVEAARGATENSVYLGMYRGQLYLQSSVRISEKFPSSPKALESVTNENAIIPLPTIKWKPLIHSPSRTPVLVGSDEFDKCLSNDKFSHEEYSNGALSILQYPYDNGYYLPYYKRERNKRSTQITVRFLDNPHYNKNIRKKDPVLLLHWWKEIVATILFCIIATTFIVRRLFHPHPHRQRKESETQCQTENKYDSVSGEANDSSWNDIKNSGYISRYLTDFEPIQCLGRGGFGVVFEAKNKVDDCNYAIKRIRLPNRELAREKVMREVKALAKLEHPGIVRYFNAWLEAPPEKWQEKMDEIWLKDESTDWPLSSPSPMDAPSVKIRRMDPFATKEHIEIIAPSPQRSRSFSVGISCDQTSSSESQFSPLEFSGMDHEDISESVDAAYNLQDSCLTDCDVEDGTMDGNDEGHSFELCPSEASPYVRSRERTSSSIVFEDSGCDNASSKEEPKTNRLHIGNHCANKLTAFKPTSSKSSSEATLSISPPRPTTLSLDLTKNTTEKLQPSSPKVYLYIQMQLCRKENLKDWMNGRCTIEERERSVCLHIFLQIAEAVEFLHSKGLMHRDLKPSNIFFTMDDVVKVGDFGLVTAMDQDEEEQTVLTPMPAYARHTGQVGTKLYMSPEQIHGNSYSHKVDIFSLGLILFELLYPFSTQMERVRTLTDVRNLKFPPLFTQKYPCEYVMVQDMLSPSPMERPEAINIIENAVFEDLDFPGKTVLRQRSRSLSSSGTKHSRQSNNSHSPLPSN
# Chain of Neurotensin receptor type 1 (P30989 whole entry): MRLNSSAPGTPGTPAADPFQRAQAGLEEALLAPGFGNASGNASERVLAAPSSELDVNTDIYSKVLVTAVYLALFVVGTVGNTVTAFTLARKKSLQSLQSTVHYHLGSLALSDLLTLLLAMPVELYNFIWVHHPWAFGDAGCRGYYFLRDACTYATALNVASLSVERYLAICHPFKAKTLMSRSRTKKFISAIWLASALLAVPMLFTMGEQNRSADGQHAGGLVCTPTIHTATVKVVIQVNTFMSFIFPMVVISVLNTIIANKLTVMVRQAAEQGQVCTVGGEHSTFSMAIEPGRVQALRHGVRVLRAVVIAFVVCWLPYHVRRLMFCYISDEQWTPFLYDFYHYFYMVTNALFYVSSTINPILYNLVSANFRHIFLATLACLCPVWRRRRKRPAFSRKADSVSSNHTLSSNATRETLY
# Chain of NACHT, LRR and PYD domains-containing protein 3 (Q96P20 whole entry, the tested form may be a part): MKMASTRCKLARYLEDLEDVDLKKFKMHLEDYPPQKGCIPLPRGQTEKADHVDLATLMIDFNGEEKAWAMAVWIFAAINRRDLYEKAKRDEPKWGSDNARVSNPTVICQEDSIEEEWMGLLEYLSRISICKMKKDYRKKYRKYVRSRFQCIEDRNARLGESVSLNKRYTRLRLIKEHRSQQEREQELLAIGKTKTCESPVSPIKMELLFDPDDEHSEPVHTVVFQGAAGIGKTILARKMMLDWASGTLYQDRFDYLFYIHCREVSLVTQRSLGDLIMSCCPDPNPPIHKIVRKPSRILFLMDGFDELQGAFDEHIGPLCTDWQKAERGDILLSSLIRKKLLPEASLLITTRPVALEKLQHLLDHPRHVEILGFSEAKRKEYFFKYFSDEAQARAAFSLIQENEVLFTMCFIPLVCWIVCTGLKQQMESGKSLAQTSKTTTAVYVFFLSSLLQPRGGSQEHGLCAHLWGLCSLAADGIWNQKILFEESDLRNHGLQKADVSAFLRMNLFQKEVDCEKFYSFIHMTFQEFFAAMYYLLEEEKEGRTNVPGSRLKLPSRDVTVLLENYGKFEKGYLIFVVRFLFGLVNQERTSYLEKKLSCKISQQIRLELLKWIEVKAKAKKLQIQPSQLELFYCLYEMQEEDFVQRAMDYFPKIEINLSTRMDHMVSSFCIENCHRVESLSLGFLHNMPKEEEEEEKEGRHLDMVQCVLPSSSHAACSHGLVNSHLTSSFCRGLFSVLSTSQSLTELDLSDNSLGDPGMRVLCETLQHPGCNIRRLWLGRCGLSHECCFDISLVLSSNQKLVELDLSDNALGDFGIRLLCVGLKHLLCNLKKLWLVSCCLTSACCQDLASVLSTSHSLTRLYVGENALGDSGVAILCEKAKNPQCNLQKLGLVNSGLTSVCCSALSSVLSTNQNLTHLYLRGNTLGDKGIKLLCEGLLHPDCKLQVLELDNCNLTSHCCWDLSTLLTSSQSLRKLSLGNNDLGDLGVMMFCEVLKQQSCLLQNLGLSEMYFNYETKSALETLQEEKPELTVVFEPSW
smiles,measurement,setting,value
N#C/C(=C\c1cccn1S(=O)(=O)c1cccc(C#N)c1)S(=O)(=O)c1ccc(F)cc1,IC50,[1],> 50 µM (inactive)
same,CC50,[2],100 µM (active)
COCCNC1=N[C@@H](c2cccc(C(F)(F)F)c2)C(C(=O)OC)=C(C)N1Cc1ccccc1,IC50,[3],14.7 µM (not active)
same,IC50,[4],> 96.6 µM (inactive)
CC(C)Cn1c(N)c(C(=O)CSc2cc(Cl)ccc2Cl)c(=O)n(C)c1=O,EC50,[5],16.5 µM (active)
O=c1cc(-c2ccccc2Cl)oc2ccc([N+](=O)[O-])c(O)c12,EC50,[6],4.58 µM (active)
same,EC50,Streptococcus,8.09 µM (active)
same,CC50,[7],26.2 µM (active)
same,CC50,[8],> 20 µM (active)
same,IC50,cells [9],12.1 µM (active)
same,IC50,[10],9.17 µM (active)
Cc1ccc(N(C(=O)c2ccn[nH]2)C(C(=O)NC2CCCC2)c2cccs2)cc1 (stereo unspecified),EC50,[11],> 100 µM (not active)
OC1c2ccccc2-c2nc3ccccc3cc21 (stereo unspecified),AC50,Cytochrome P450 2C9,25.1 µM (inconclusive)
same,AC50,Cytochrome P450 3A4,25.1 µM (inconclusive)
COc1cccc(C(=O)NC2CC3CCCC(C2)N3CC(=O)Nc2ccccc2)c1 (stereo unspecified),IC50,[12],9.46 µM (active)
same,IC50,[13],11.4 µM (active)
same,IC50,Bcl-2-related protein A1 [14],> 100 µM (not active)
same,IC50,Bcl-2-like protein 10,73.6 µM (inactive)
same,IC50,Bcl-2-related protein A1 [15],> 100 µM (not active)
same,IC50,Estrogen receptor beta,44.6 µM (not active)
same,IC50,[16],45.4 µM (active)
Cc1ccc(Cl)cc1N1CCN(S(=O)(=O)N2CCCCC2)CC1,EC50,Ion channel NompC [17],> 29.9 µM (inactive)
same,EC50,Ion channel NompC [18],> 29.9 µM (not active)
same,EC50,Mucolipin-3 [19],1.84 µM (active)
same,EC50,Mucolipin-3 [20],3.46 µM (active)
CCN(CC)S(=O)(=O)c1cccc(C(=O)N[C@H](C(=O)OCC(=O)Nc2ccccc2)C(C)C)c1,EC50,[21],0.558 µM (active)
CC(C)C(=O)Nc1ccc2c(c1)nc(CCN1CCN(C)CC1)n2C,EC50,[22],> 55.7 µM (not active)
same,EC50,[23],> 55.7 µM (not active)
CC(C)CCNC(=O)c1cccc(Cl)c1,AC50,[24],6.33 µM (active)
COCC(C)n1c(-c2ccc3c(c2)NC(=O)CO3)cs/c1=N\c1ccc(OC(F)F)cc1 (stereo unspecified),AC50,[25],4.28 µM (active)
same,EC50,cells [26],> 29.9 µM (inactive)
same,IC50,Galanin receptor type 3,4.24 µM (active) and 3.49 µM (active)
same,IC50,[27],> 66.6 µM (inactive)
same,AC50,[28],3.15 µM (active)
same,IC50,Beta-galactosidase,> 66.6 µM (inactive)
same,AC50,[29],42.7 µM (active)
